TGI and GI50 data for 9 molecules are collected here from PubChem BioAssay (NCI).

Test systems include 786-0 renal; A498 renal; EKVX NSCLC; IGROV1 ovarian; NCI-H460 lung; NCI-H522 lung; SF-539 CNS; SK-MEL-5 melanoma; SNB-75 CNS; U251 CNS.
Common to all, as to assay: NCI-60 cell line screen, 48 h

Values joined by “and” are separate entries in the source; they are usually repeats but may differ in a detail not shown here. Equal entries are not always repeated.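 Grown in 96-well plates, cells were treated for 48 hours with each compound at five concentrations. Insufficient inhibition: endpoint recorded as highest concentration tested. At the GI50, growth is halved. At the TGI there is no net growth.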

For `CC(=O)O[C@H]1CSC[C@@H](OC(C)=O)C1[N+](=O)[O-]` (stereo partly specified), the TGI is 36.5 µM in the assay with 786-0 renal; above 100 µM in the assay with A498 renal; above 100 µM with EKVX NSCLC; above 100 µM in the assay on IGROV1 ovarian; above 100 µM in the assay with NCI-H460 lung; 36.8 µM in the assay on NCI-H522 lung. The TGI with SF-539 CNS, in the assay with SK-MEL-5 melanoma, with SNB-75 CNS and with U251 CNS was above 100 µM in each case.

In the case of `COc1cc([C@H]2OC[C@@H]3C(c4cc(OC)c5c(c4)OCO5)OC[C@H]23)cc(OC)c1OC` (stereo partly specified), the TGI in the assay with 786-0 renal, in the assay on A498 renal, with EKVX NSCLC, in the assay with IGROV1 ovarian, in the assay with NCI-H460 lung and in the assay with NCI-H522 lung was above 100 µM in each case. For the same molecule, the TGI in the assay on SF-539 CNS was above 100 µM; in the assay on SK-MEL-5 melanoma, 44.9 µM; in the assay with SNB-75 CNS, above 100 µM; in the assay on U251 CNS, above 100 µM.

`N#Cc1ccc2c(-c3ccnc(NC4CC4)n3)c(-c3ccc(F)cc3)nn2c1`: the GI50 with 786-0 renal, in the assay on A498 renal, with EKVX NSCLC, with IGROV1 ovarian, in the assay with NCI-H460 lung and with NCI-H522 lung was above 25 µM in each case. Besides, the GI50 in the assay with SF-539 CNS is above 25 µM; in the assay on SK-MEL-5 melanoma, above 25 µM; in the assay with SNB-75 CNS, above 17.2 µM; with U251 CNS, above 25 µM. The TGI in the assay with 786-0 renal, in the assay on A498 renal, in the assay on EKVX NSCLC, in the assay on IGROV1 ovarian, with NCI-H460 lung and with NCI-H522 lung was above 25 µM throughout. For the same molecule, the TGI in the assay on SF-539 CNS, in the assay on SK-MEL-5 melanoma, in the assay with SNB-75 CNS and with U251 CNS was above 25 µM each time.

For `Cc1cnc(C(=O)Nc2nc3ccc(S(=O)(=O)Nc4ccc(C(C)(C)C)cc4)cc3[nH]2)cn1`, the GI50 in the assay with 786-0 renal was 0.552 µM; with A498 renal, 0.288 µM; in the assay with EKVX NSCLC, 0.789 µM; in the assay on IGROV1 ovarian, 0.776 µM; in the assay with NCI-H460 lung it was 0.37 µM; with NCI-H522 lung it was 0.356 µM. Further, the GI50 in the assay on SF-539 CNS was 0.333 µM; in the assay on SK-MEL-5 melanoma it was 0.33 µM; in the assay with SNB-75 CNS, 0.216 µM; in the assay with U251 CNS, 0.648 µM. Moreover, the TGI was determined as 13.7 µM with 786-0 renal; 1.31 µM in the assay on A498 renal; 14 µM in the assay with EKVX NSCLC; 12.3 µM in the assay with IGROV1 ovarian; 2.02 µM in the assay on NCI-H460 lung; 8.9 µM in the assay on NCI-H522 lung. Also, the TGI with SF-539 CNS came out at 1.87 µM; in the assay on SK-MEL-5 melanoma, 7.09 µM; in the assay on SNB-75 CNS it was 1.01 µM; with U251 CNS, 9.99 µM.

With `O=C1OC(c2ccccc2)=N/C1=C\c1ccccc1`, in the assay with 786-0 renal, the GI50 was 44.6 µM and > 100 µM. Besides, the TGI in the assay with 786-0 renal, with A498 renal, in the assay on EKVX NSCLC, in the assay with IGROV1 ovarian, with NCI-H460 lung and in the assay with NCI-H522 lung was above 100 µM in each case. Also, the TGI in the assay on SF-539 CNS was 55.2 µM and 40.8 µM; in the assay on SK-MEL-5 melanoma, above 100 µM; in the assay with SNB-75 CNS, above 100 µM; in the assay on U251 CNS it was above 100 µM.

Turning to `COC(=O)[C@]12CC[C@@H](C)[C@H](C)[C@@H]1C1=CC[C@@H]3[C@@]4(C)C[C@@H](OC(C)=O)[C@H](OC(C)=O)[C@@](C)(COC(C)=O)[C@@H]4[C@H](O)C[C@@]3(C)[C@]1(C)CC2`, the GI50 with 786-0 renal is 1.8 µM; with A498 renal, 1.92 µM; with EKVX NSCLC, 2.14 µM; in the assay with IGROV1 ovarian, 2.17 µM; with NCI-H460 lung, 0.505 µM; in the assay with NCI-H522 lung, 1.92 µM. For the same molecule, the GI50 is 3.92 µM in the assay with SF-539 CNS, 0.367 µM in the assay with SK-MEL-5 melanoma, 4.32 µM in the assay on SNB-75 CNS and 0.86 µM in the assay on U251 CNS. The TGI with 786-0 renal was above 100 µM; in the assay on A498 renal, 68.5 µM; with EKVX NSCLC, above 100 µM; in the assay on IGROV1 ovarian it was above 100 µM; in the assay on NCI-H460 lung it was 16.2 µM; in the assay with NCI-H522 lung, 89 µM. The TGI in the assay on SF-539 CNS is above 100 µM; in the assay on SK-MEL-5 melanoma, 1.72 µM; with SNB-75 CNS, above 100 µM; in the assay on U251 CNS, above 100 µM.

`CSc1ccc(-c2cn3ccsc3n2)cc1`: the GI50 is 32.3 µM in the assay with 786-0 renal; 55.6 µM with A498 renal; 36.2 µM in the assay on EKVX NSCLC; 5.73 µM in the assay with IGROV1 ovarian; 3.71 µM in the assay on NCI-H460 lung; 11.1 µM with NCI-H522 lung. The GI50 in the assay on SF-539 CNS is 16.9 µM; in the assay with SK-MEL-5 melanoma it was 14.3 µM; in the assay with SNB-75 CNS, 7.76 µM; in the assay with U251 CNS, 7.65 µM. The TGI in the assay on 786-0 renal is above 100 µM; in the assay with A498 renal, above 100 µM; with EKVX NSCLC, above 100 µM; in the assay with IGROV1 ovarian, above 75.5 µM; in the assay with NCI-H460 lung, above 100 µM; in the assay with NCI-H522 lung it was above 89.5 µM. Moreover, the TGI in the assay with SF-539 CNS is above 75.3 µM; with SK-MEL-5 melanoma, 98.1 µM; with SNB-75 CNS it was 74 µM; in the assay with U251 CNS it was above 100 µM.

As to `COc1cc2c(c3oc4c(O)cccc4c(=O)c13)CC(C(C)(O)CCl)O2` (stereo unspecified), the TGI with 786-0 renal turned out to be 12.8 µM; in the assay with A498 renal, 37.3 µM; with EKVX NSCLC, 21.9 µM; with IGROV1 ovarian, 8.28 µM; in the assay on NCI-H460 lung it was 13.2 µM; with NCI-H522 lung, 5.94 µM. In addition, the TGI came out at 2.2 µM in the assay on SF-539 CNS, 1.5 µM in the assay on SK-MEL-5 melanoma, 8.18 µM in the assay with SNB-75 CNS and 12.5 µM in the assay on U251 CNS.

On to `COc1ccc(/C(=C(\c2ccccc2)[N+](=O)[O-])c2ccc(OCCN3CCCC3)cc2)cc1`, for which the GI50 was 1.64 µM with 786-0 renal; 2.19 µM with A498 renal; 7.29 µM in the assay with EKVX NSCLC; 3.57 µM with IGROV1 ovarian; 2.02 µM with NCI-H460 lung; 2.46 µM in the assay on NCI-H522 lung. The GI50 was 1.39 µM with SF-539 CNS, 1.54 µM in the assay with SK-MEL-5 melanoma, 2.24 µM in the assay on SNB-75 CNS and 2.84 µM with U251 CNS. Further, the TGI in the assay with 786-0 renal came to 3.27 µM; in the assay on A498 renal, 10.9 µM; in the assay on EKVX NSCLC, 21.5 µM; in the assay on IGROV1 ovarian it was 17.3 µM; with NCI-H460 lung, 4.69 µM; in the assay with NCI-H522 lung, 9.62 µM. Besides, the TGI came out at 3.42 µM in the assay on SF-539 CNS, 2.92 µM in the assay on SK-MEL-5 melanoma, 8.17 µM in the assay on SNB-75 CNS and 12.6 µM in the assay with U251 CNS.
